Data on 63 compounds can be found in a melting point compilation (Tetko et al.; mined from patent text by program, amines drawn as free bases though some values may be those of a salt).

Some results are limits rather than exact numbers.

Regarding `Cc1ncc(C(=S)Nc2c(Cl)cncc2Cl)cc1OC1CCCC1`, the melting point lay in the range of 144 to 145 °C. The result for `CS(=O)(=O)c1c(C#N)nn(-c2c(Cl)cc(C(F)(F)F)cc2Cl)c1-n1cccc1` reads 200 to 202 °C; that for `CCOC(=O)c1cc2cccc(NS(C)(=O)=O)c2[nH]1`, 157 to 158 °C. `O=C(Nc1ccc(Cl)c(Cl)c1)N(O)Cc1ccccc1`: the melting point turned out to be 157 °C. In turn, `O=C1c2ccccc2OCOc2ccccc21` gave a melting point of 93 to 95 °C. Take `COC(=O)CCNc1ccccc1CNC(=O)C1Cc2ccccc2N1S(=O)(=O)c1ccc(I)cc1` (stereo not drawn): the melting point lay within 67 to 75 °C. Turning to `CSc1cc(C#N)c(Oc2ccc(Cl)c(Cl)c2)cn1`, the melting point lay within 96 to 97 °C.

For `Clc1nc2ncsc2nc1Cl`, the melting point was in the range of 124 to 125 °C. The result for `CC=CC(=O)N(CCCC(=O)O)C(C)(C)CC(C)(C)C` reads 92 to 93 °C; that for `Cn1c(SCc2ccccc2)nc2cnc3ccccc3c21`, 160 to 163 °C; that for `COC(=O)c1ccc(NCCNC(=O)C2Cc3ccccc3N2S(=O)(=O)c2ccc(-c3cc(C(F)(F)F)ccc3Cl)cc2)cc1` (stereo not drawn), 96 to 98 °C. For the compound `CS(=O)(=O)OCC(O)(CC(Cl)(Cl)Cl)c1ccccc1` (stereo not drawn), the melting point fell in the range of 128 to 130 °C. The compound `CSc1nc(C)ccc1NC(=O)CCCCCSc1nc2ccccc2s1` had a melting point of 122 to 123 °C. In turn, `COc1nccc(-c2ccc3cc(N(C)C)ccc3c2)c1C#N` registered a melting point of 150 to 151 °C. On to `CC12CC(CCF)C3C4CCC(=O)C=C4CCC3C1CCC2=O` (stereo not drawn), for which the melting point turned out to be 85 °C. Take `O=C1Nc2ccc(-c3cccnc3)cc2C12CCCCC2`: the melting point was 232 to 234 °C. The compound `NC(=O)CCN1CCC(C(O)(c2ccc(F)cc2)c2ccc(F)cc2)CC1` had a melting point of 136 to 137 °C.

Regarding `CC(C)CNC(=O)NCCCl`, the melting point was 79.5 °C. Regarding `CNC(=O)Nc1cc(OC)ccc1Br`, the melting point was in the range of 164 to 166 °C.

In turn, `O=Cc1ccc2ccc3c4ccccc4ccc3c2c1` gave a melting point of 177 to 178 °C. The result for `COC(=O)C(CCCN(C)CCc1ccc(OC)c(OC)c1)c1ccc(OC)c(OC)c1` (stereo not drawn) reads 112 to 114 °C; that for `CCOC1=CC=CC(C=O)C1(OCc1ccccc1)[N+](=O)[O-]` (stereo not drawn), 110 to 111 °C; that for `O=[N+]([O-])c1ccccc1OC[C@@H](O)CNCCc1ccc(Cl)c(Cl)c1`, 73 to 74 °C. As to `Cc1ccc2c(c1)C=Cc1cc(C)ccc1C2c1cn(-c2ccnc(NCC(=O)Nc3nc(CC(=O)O)cs3)n2)c(=O)[nH]c1=O`, the melting point was determined as 223 °C.

For `CC(=O)OCC1OC(CCOS(C)(=O)=S)C(OC(C)=O)C(OC(C)=O)C1OC(C)=O` (stereo not drawn), the melting point lay within 115 to 116 °C. Turning to `CCC(C(=O)N(C)C)n1cc(C(C)C)c(-c2ccccc2)n1` (stereo not drawn), the melting point lay within 89 to 90 °C.

As for `COc1ccccc1C1C(=O)Nc2cc(C)c(Cl)cc21` (stereo not drawn), the melting point came out at 193 °C. For the compound `COc1cccc(-c2ccc(C(O)C(F)(F)F)cc2)c1` (stereo not drawn), the melting point worked out at 108 °C. `CN1C(=O)C(C)(C)N=C(c2ccccc2Cl)c2cc([N+](=O)[O-])ccc21` yielded a melting point of 177 to 178 °C. In turn, `Cc1c(C)c(N2Cc3cc(Cl)c(Cl)cc3C2)c(C)c2c1OC(C)(C)C2c1ccc(C(C)C)cc1` (stereo not drawn) displayed a melting point of 148 to 150 °C.

As for `Cc1cc(F)c(N)cc1N`, the melting point amounted to 112 °C. Turning to `O=[N+]([O-])c1cccc(-c2nnc(Nc3cccc(SCCCc4ccccc4)c3)s2)c1`, the melting point lay in the range of 169 to 171 °C. The result for `CC(OS(=O)(=O)C(F)(F)F)=C(C(=O)OCc1ccccc1)N1C(=O)[C@@H](N2C(=O)c3ccccc3C2=O)[C@H]1COS(C)(=O)=O` reads 51 to 55 °C; that for `COC(=O)CCCc1cccc(NC(=O)[C@@H](CSC(C)=O)Cc2ccccc2)c1`, 87 to 88.5 °C.

`CN(C)C=CC(=O)c1ccc(OCc2ccccc2)cc1` yielded a melting point of 138 °C. `Cc1nc2cc3c(cc2n1C)C(=O)OC3=O` had a melting point of 310 to 315 °C. Compound `Cc1csc2c(S(N)(=O)=O)c(C(N)=O)nn12` registered a melting point above 270 °C. Compound `C[C@H]1OC(=O)[C@@H](N)[C@@H]1C(=O)O` had a melting point of 196 to 200 °C. In the case of `Nc1ccc(C(c2ccccc2)c2ccccc2)nc1`, the melting point is 130 to 134 °C. `CC(=O)NC[C@H]1CN(c2ccc(N3CCC(n4nnc(N5CCN(C#N)CC5)n4)CC3)c(F)c2)C(=O)O1` returned a melting point of 208 to 210 °C. In the case of `Cn1c(COc2ccc(CC3SC(=O)NC3=O)cc2)nc2ccc(O)nc21` (stereo not drawn), the melting point was 240 to 242 °C. `Cc1sc(-c2cn[nH]c2)nc1O` returned a melting point of 124 to 125 °C. With `COC(=O)COc1ccc(N)cc1`, the melting point was 65 to 66.8 °C. `COc1cc(OC)c2c(C)c3n(c(=O)c2c1)CCCC3` came in with a melting point of 165 to 168 °C.

`CC(=O)Nc1ccc(N2CCC(=O)CC2)cc1` had a melting point of 158 to 159 °C. On to `O=C(C=Cc1ccccc1)c1ccc(N2CCN(c3ccncc3)CC2)cc1`, for which the melting point was in the range of 208 to 210 °C. Turning to `Cn1c2cc(OCC(O)CO)ccc2c2c3c(c(-c4ccccc4Cl)cc21)C(=O)NC3=O` (stereo not drawn), the melting point was 287 to 290 °C. Compound `Cc1cc(-c2nc3cccnn3c2-c2ccnc(NC(=O)CCS(C)(=O)=O)c2)ccc1F` came in with a melting point of 227 to 228 °C. Compound `Cc1cc(Cc2nnc(Nc3ccc(Cl)cc3)c3ccccc23)cc(C)n1` registered a melting point of 175 to 176 °C. Regarding `CC(=O)Oc1c(C)c(C)c2c(c1C)C(=O)CC(O)(COc1ccc([N+](=O)[O-])cc1)O2` (stereo not drawn), the melting point fell in the range of 204 to 207 °C. The result for `CN1CCN(CCCNc2ncc3cc(-c4c(Cl)cccc4Cl)c(NC(=O)Nc4cccc5ccccc45)nc3n2)CC1` reads 186 to 189 °C; that for `N#Cc1cccc(C(=O)Cn2cncn2)c1`, 172 to 173 °C; that for `CCCCCCCCCCCCCCCCCCc1ccc(O)c([N+](=O)[O-])c1`, 71 °C. With `COC(=O)c1nc(-c2ccc(Cl)c(OC)c2F)cc(N)c1Cl`, the melting point fell in the range of 141 to 143 °C. Turning to `CCOc1cc2c(cc1S(=O)(=O)NC(=O)NC)C(CNC(=O)N1CC(C)=C(CC)C1=O)CCO2` (stereo not drawn), the melting point was 187 to 188 °C. The result for `COC(=O)CN(CC(=O)OC)c1cccc([N+](=O)[O-])c1` reads 54 to 57 °C.

Take `O=C(Cn1c(-c2cccc(Cl)c2)nc2cccnc21)Nc1ccccn1`: the melting point is 165 to 166 °C. The compound `Cc1oc(-c2ccc(C(F)(F)F)cc2)nc1-c1ccc(-c2cc(Br)c(OCC(=O)O)c(Br)c2)cc1` came in with a melting point of 165 to 166 °C. `CN(C(=O)OC(C)(C)C)c1cc(Oc2ccc(Cc3ccccc3)cc2)ccc1N` showed a melting point of 114 to 115 °C. With `CN1C(=O)N(c2ccc(Cl)cc2)S[N+]1(C)[O-]` (stereo not drawn), the melting point was 83 to 85 °C. The compound `CC(C)c1cccc(C(C)C)c1NC(=O)N(Cc1ccc(N(C)C)cc1)c1ccc(C(C)(C)C)cc1` came in with a melting point of 154 to 155 °C.

Compound `Brc1ccc(Oc2ccc(-n3ccnc3)nn2)cc1` returned a melting point of 168 °C. As to `Cc1nc2cccc(OCC(C)(C)NC(=O)CN3CCOCC3)c2c(N)c1C(=O)O`, the melting point was in the range of 173 to 175 °C.

Broadly, the melting point is the temperature, or range, at which the solid turns liquid.
